# Target: T1, human Kv72+3 channels (Homo sapiens, UniProt O43525+O43526)
# T1 construct: expressed in transfected cells
# Assay: Patch-clamp on HEK293 cell lines stably expressing human Kv7.2+3 channels
# Assay type: cell-based
# Details: conc. 0.03 μM, −30 mV, 20 ms; baseline current defined as 100%; HEK293 cells
# Text: The effect obtained by these channel activators is described as a percentage increase in baseline current at a given concentration. The baseline current is defined as 100%, and an increase in current is expressed relative to this, i.e. an increase from 1 nA to 1.2 nA is reported as 120%.
row,I^K(%) increase in baseline current [%],SMILES
1,285,"CCN(C)c1nc(NCc2ccc(F)cc2)ccc1NC(=O)[C@@H]1C[C@H]1c1ccccc1 (relative stereo) [Compound 6, trans-2-Phenyl-cyclopropanecarboxylic acid [2-Ethylmethylamino-6-(4-fluoro-benzylamino)-pyridin-3-yl]-amide]"
2,685,"CN(C)c1nc(NCc2ccc(F)cc2)ccc1NC(=O)Cc1cc(F)cc(F)c1 [Compound 1, N-[2-Dimethylamino-6-(4-fluoro-benzylamino)-pyridin-3-yl]-2-(3,5-difluoro-phenyl)-acetamide]"
3,105,"CCN(C)c1nc(NCc2ccc(F)cc2)ccc1NC(=O)CC(C)(C)C [Compound 8, N-[2-Ethylmethylamino-6-(4-fluoro-benzylamino)-pyridin-3-yl]-3,3-dimethyl-butyramide]"
4,548,"CCN(C)c1nc(NCC(C)C)ccc1NC(=O)Cc1cc(F)cc(F)c1 [Compound 11, 2-(3,5-Difluoro-phenyl)-N-[2-(ethyl-methyl-amino)-6-isobutylamino-pyridin-3-yl]-acetamide]"

row,SMILES,I^K(%) increase in baseline current [%]
1,"CCN(C)c1nc(NCc2ccc(F)cc2)ccc1NC(=O)Cc1ccc(C(F)(F)F)c(F)c1 [Compound 3, N-[2-Ethylnnethylamino-6-(4-fluoro-benzylamino)-pyridin-3-yl]-2-(3-fluoro-4-trifluoromethyl-phenyl)-acetamide]",268

# — patent US20110003867A1, “NOVEL 2-ETHYL-METHYL-AMINO-3-AMIDO-6-AMINO-PYRIDINE DERIVATIVES USEFUL AS POTASSIUM CHANNEL ACTIVATORS” (NeuroSearch A/S, priority 2007, published 2011)
